Literature values in publication PMC7884382, “A Phase 1 study of RO6870810, a novel bromodomain and extra-terminal protein inhibitor, in patients with NUT carcinoma, other solid tumours, or diffuse large B-cell lymphoma” (British Journal of Cancer, 2020).

Experiments:
[1] = system: NC; conditions: cited from earlier work
[2] = system: serotonin receptors; design: method as in PMID 20871596; conditions: cited from earlier work
[3] = cited from earlier work
[4] = system: DLBCL; design: method as in PMID 27063978; conditions: cited from earlier work

## Cc1nnn(C)c1-c1cnc2c3ccc(C(C)(C)O)cc3n([C@H](c3ccccc3)C3CCOCC3)c2c1 [BMS-986158]
[1]
  Response in a patient with NC harbouring BRD3-NUT fusion: minor but sustained regression

## Cc1sc2c(c1C)C(c1ccc(Cl)cc1)=N[C@@H](CC(=O)OC(C)(C)C)c1nnc(C)n1-2 [JQ1]
[2]
  Interaction with serotonin receptors: interaction with serotonin receptors

## Cc1sc2c(c1C)C(c1ccc(Cl)cc1)=N[C@@H](CC(=O)Nc1ccc(O)cc1)c1nnc(C)n1-2 [birabresib]
[3]
  half-life: 4 to 5 h
[4]; among 22 patients with DLBCL
  CRs: 2
  PR: 1
[4]
  Responders among patients with MYC-expressing DLBCL: one of five

## CCNC(=O)C[C@@H]1N=C(c2ccc(Cl)cc2)c2cc(OC)ccc2-n2c(C)nnc21 [molibresib]
[1]
  Responses by NUT fusion among patients with NC: PRs (confirmed and unconfirmed) were mostly observed in tumours with BRD3-NUT fusions
